Measured values: patent US12590099B2, “Inhibitors of histone deacetylase useful for the treatment or prevention of HIV infection” (Merck Sharp & Dohme LLC, priority 2018, dated 2026)
pIC50: −log10 of the molar value. Read-outs that look alike come from different tables or passages of the source.

How the values were obtained:
Recombinant human HDAC2 = target: T1, Recombinant human HDAC2 (Homo sapiens, UniProt Q92769); test: Human HDAC enzyme inhibitor Fluor-de-Lys assay, HDAC2; assay type: biochemical
T1 construct: Full length human HDAC2-FLAG was expressed in baculovirus infected Sf9 cells; FLAG (C); made in house; host or cells: Sf9 (baculovirus)
T1 sequence (Q92769 whole entry): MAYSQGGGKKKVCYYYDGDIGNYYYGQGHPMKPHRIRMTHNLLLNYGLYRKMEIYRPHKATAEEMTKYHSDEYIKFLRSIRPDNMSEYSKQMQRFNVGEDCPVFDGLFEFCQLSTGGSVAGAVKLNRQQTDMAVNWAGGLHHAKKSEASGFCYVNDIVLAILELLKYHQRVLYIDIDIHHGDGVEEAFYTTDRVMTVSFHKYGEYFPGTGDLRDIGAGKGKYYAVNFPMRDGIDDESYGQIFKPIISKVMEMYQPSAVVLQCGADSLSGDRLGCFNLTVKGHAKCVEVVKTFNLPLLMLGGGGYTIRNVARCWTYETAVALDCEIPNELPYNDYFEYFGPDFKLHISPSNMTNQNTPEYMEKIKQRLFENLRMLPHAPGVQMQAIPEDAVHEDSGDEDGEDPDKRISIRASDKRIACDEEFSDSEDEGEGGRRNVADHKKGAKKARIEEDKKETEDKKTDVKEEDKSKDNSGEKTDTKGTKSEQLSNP
Summary of the method: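 Fluor-de-Lys format at room temperature (23° C.): compounds titrated 10-point, 1:3, preincubated with HDAC before substrate addition. Developer with excess HDAC inhibitor ends the reaction, and trypsin-liberated AMC fluorescence is the read-out.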

KARN cells (Jurkat 2C4) = test: cells; assay type: cell-based; conditions: Homo sapiens, Jurkat
Summary of the method: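 Luminescence (Steady-Glo, 10 min, room temperature) measured next day in KARN Jurkat 2C4 cells given compounds at up to 40 μM final with 0.4% DMSO. Percent activation normalised to DMSO (0%) and 2 μM SAHA (100%), fitted by 4-parameter curve.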

[1] = read-out: Karn EC50 (nM) 0.1% NHS, 0.1% normal human serum
[2] = read-out: Karn EC50 (nM) 5% NHS, 5% normal human serum

CCC(=O)CCCCC[C@H](NC(=O)CN1CCC2(CC1)CC2)c1ncc(-c2ccc3nn(C)cc3c2)[nH]1 [Compound 155]
pIC50 (Recombinant human HDAC2): 7.74
EC50 (KARN cells (Jurkat 2C4); [1]): 354 nM
EC50 (KARN cells (Jurkat 2C4); [2]): 398 nM

CCC(=O)CCCCC[C@H](NC(=O)C1CCC2(CC1)CN(C)C2)c1ncc(-c2ccc3nn(C)cc3c2)[nH]1 [Compound 156]
pIC50 (Recombinant human HDAC2): 7.82
EC50 (KARN cells (Jurkat 2C4); [1]): 1360 nM
EC50 (KARN cells (Jurkat 2C4); [2]): 1360 nM

CCC(=O)CCCCC[C@H](NC(=O)C1(CC(C)C)CC2(CN(C)C2)C1)c1ncc(-c2ccc3nc(C)ccc3c2)[nH]1 [Compound 157]
pIC50 (Recombinant human HDAC2): 7.92
EC50 (KARN cells (Jurkat 2C4); [1]): 451 nM
EC50 (KARN cells (Jurkat 2C4); [2]): 557 nM

CCC(=O)CCCCC[C@H](NC(=O)[C@H]1CC12CCN(CC)CC2)c1ncc(-c2ccc3c(cnn3C3CC3)c2)[nH]1 [Compound 159]
pIC50 (Recombinant human HDAC2): 8.62
EC50 (KARN cells (Jurkat 2C4); [1]): 73 nM
EC50 (KARN cells (Jurkat 2C4); [2]): 57 nM

CCC(=O)CCCCC[C@H](NC(=O)[C@H]1CC12CCN(C)CC2)c1ncc(-c2ccc3nc(C4CC4)oc3c2)[nH]1 [Compound 160]
pIC50 (Recombinant human HDAC2): 7.92
EC50 (KARN cells (Jurkat 2C4); [1]): 200 nM
EC50 (KARN cells (Jurkat 2C4); [2]): 234 nM

CCC(=O)CCCCC[C@H](NC(=O)[C@H]1CC12CCN(CC)CC2)c1ncc(-c2ccc(-c3cnc(C4CC4)nc3)cc2)o1 [Compound 161]
pIC50 (Recombinant human HDAC2): 6.79
EC50 (KARN cells (Jurkat 2C4); [1]): 1370 nM
EC50 (KARN cells (Jurkat 2C4); [2]): 1460 nM

CCC(=O)CCCCC[C@H](NC(=O)[C@H]1CC12CCN(CC)CC2)c1ncc(-c2ccc3c(=O)n(CC)ccc3c2)o1 [Compound 162]
pIC50 (Recombinant human HDAC2): 8.02
EC50 (KARN cells (Jurkat 2C4); [1]): 257 nM
EC50 (KARN cells (Jurkat 2C4); [2]): 305 nM

CCN1CCC2(CC1)C[C@@H]2C(=O)N[C@@H](CCCCCC(=O)CC1CC1)c1ncc(-c2cc3ccc(C)nc3cc2OC)[nH]1 [Compound 165]
pIC50 (Recombinant human HDAC2): 8.10
EC50 (KARN cells (Jurkat 2C4); [1]): 140 nM
EC50 (KARN cells (Jurkat 2C4); [2]): 385 nM

CCN1CCC2(CC1)C[C@@H]2C(=O)N[C@@H](CCCCCC(=O)CC1CC1)c1ncc(-c2cc3ccc(C)nc3cc2OC)o1 [Compound 167]
pIC50 (Recombinant human HDAC2): 8.10
EC50 (KARN cells (Jurkat 2C4); [1]): 122 nM
EC50 (KARN cells (Jurkat 2C4); [2]): 253 nM

CCC(=O)CCCCC[C@H](NC(=O)[C@H]1CC12CCN(C)CC2)c1ncc(-c2cc(OC)c3ccccc3n2)[nH]1 [Compound 170]
pIC50 (Recombinant human HDAC2): 7.77
EC50 (KARN cells (Jurkat 2C4); [1]): 436 nM
EC50 (KARN cells (Jurkat 2C4); [2]): 1160 nM

CCC(=O)CCCCC[C@H](NC(=O)[C@H]1CC12CCN(C)CC2)c1ncc(-c2ccc3nc(C)cc(Cl)c3c2)[nH]1 [Compound 174]
pIC50 (Recombinant human HDAC2): 8.68
EC50 (KARN cells (Jurkat 2C4); [1]): 67 nM
EC50 (KARN cells (Jurkat 2C4); [2]): 82 nM

CCC(=O)CCCCC[C@H](N)c1ncc(-c2ccc3nc(C)ccc3c2)[nH]1 [Compound 178]
pIC50 (Recombinant human HDAC2): 6.41
EC50 (KARN cells (Jurkat 2C4); [1]): 6790 nM
EC50 (KARN cells (Jurkat 2C4); [2]): 10400 nM

C=CCN1CCC2(CC1)C[C@@H]2C(=O)N[C@@H](CCCCCC(=O)CC)c1ncc(-c2ccc3c(c2)C2CCC3N2CC=C)[nH]1 (stereo partly drawn) [Compound 179, (1S)—N-{(1S)-7-oxo-1-[5-(9-prop-2-en-1-yl-1,2,3,4-tetrahydro-1,4-epiminonaphthalen-6-yl)-1H-imidazol-2-yl]nonyl}-6-prop-2-en-1-yl-6-azaspiro[2.5]octane-1-carboxamide]
pIC50 (Recombinant human HDAC2): 6.42
EC50 (KARN cells (Jurkat 2C4); [1]): 2410 nM
EC50 (KARN cells (Jurkat 2C4); [2]): 2390 nM

C=CCN1CCC2(CC1)C[C@@H]2C(=O)N[C@@H](CCCCCC(=O)CC)c1ncc(-c2cccc3c2C2CCC3N2CC=C)[nH]1 (stereo partly drawn) [Compound 180, (1S)—N-{(1S)-7-oxo-1-[5-(9-prop-2-en-1-yl-1,2,3,4-tetrahydro-1,4-epiminonaphthalen-5-yl)-1H-imidazol-2-yl]nonyl}-6-prop-2-en-1-yl-6-azaspiro[2.5]octane-1-carboxamide]
pIC50 (Recombinant human HDAC2): 7.53
EC50 (KARN cells (Jurkat 2C4); [1]): 371 nM
EC50 (KARN cells (Jurkat 2C4); [2]): 666 nM

CCN1CCC2(CC1)C[C@@H]2C(=O)N[C@@H](CCCCCC(=O)CC1CCC1)c1ncc(-c2cc3ccc(C)nc3cc2OC)o1 [Compound 184]
pIC50 (Recombinant human HDAC2): 7.41
EC50 (KARN cells (Jurkat 2C4); [1]): 1630 nM
EC50 (KARN cells (Jurkat 2C4); [2]): 2760 nM

COc1cc2nc(C)ccc2cc1-c1cnc([C@H](CCCCCC(=O)CC2CCC2)NC(=O)[C@H]2CC23CCN(C)CC3)o1 [Compound 185]
pIC50 (Recombinant human HDAC2): 7.42
EC50 (KARN cells (Jurkat 2C4); [1]): 1330 nM
EC50 (KARN cells (Jurkat 2C4); [2]): 2960 nM

CCC(=O)CCCCC[C@H](NC(=O)[C@H]1CC12CCN(CC)CC2)c1ncc(-c2cc3nn(C)cc3cc2OC)o1 [Compound 189]
pIC50 (Recombinant human HDAC2): 7.52
EC50 (KARN cells (Jurkat 2C4); [1]): 282 nM
EC50 (KARN cells (Jurkat 2C4); [2]): 300 nM

CCC(=O)CCCCC[C@H](NC(=O)[C@H]1CC12CCN(C)CC2)c1nnc(-c2cc3ccc(C)nc3cc2OC)o1 [Compound 191]
pIC50 (Recombinant human HDAC2): 8.28
EC50 (KARN cells (Jurkat 2C4); [1]): 366 nM
EC50 (KARN cells (Jurkat 2C4); [2]): 343 nM

CCC(=O)CCCCC[C@H](NC(=O)C1=NOC2(CCN(C)CC2)C1)c1ncc(-c2cc3ccc(=O)n(C)c3cc2OC)o1 [Compound 193]
pIC50 (Recombinant human HDAC2): 7.96
EC50 (KARN cells (Jurkat 2C4); [1]): 284 nM
EC50 (KARN cells (Jurkat 2C4); [2]): 297 nM

COc1cc2nc(C)ccc2cc1-c1cnc([C@H](CCCCCC(=O)CC2CC2)NC(=O)[C@H]2CC23CCN(C)CC3)o1 [Compound 195, (1S)—N-{(1S)-8-cyclopropyl-1-[5-(7-methoxy-2-methylquinolin-6-yl)-1,3-oxazol-2-yl]-7-oxooctyl}-6-methyl-6-azaspiro[2.5]octane-1-carboxamide]
pIC50 (Recombinant human HDAC2): 8.01
EC50 (KARN cells (Jurkat 2C4); [1]): 163 nM
EC50 (KARN cells (Jurkat 2C4); [2]): 216 nM

CCC(=O)CCCCC[C@H](NC(=O)C1=NOC2(CCN(C)CC2)C1)c1ncc(-c2cc3ccc(C)nc3cc2OC)o1 [Compound 196]
pIC50 (Recombinant human HDAC2): 8.22
EC50 (KARN cells (Jurkat 2C4); [1]): 154 nM
EC50 (KARN cells (Jurkat 2C4); [2]): 162 nM

CCC(=O)CCCCC[C@H](NC(=O)[C@H]1CC12CCN(C)CC2)c1ncc(-c2cc3ccc(=O)n(C)c3cc2OC)o1 [Compound 198]
pIC50 (Recombinant human HDAC2): 8.42
EC50 (KARN cells (Jurkat 2C4); [1]): 147 nM
EC50 (KARN cells (Jurkat 2C4); [2]): 176 nM

CCC(=O)CCCCC[C@H](NC(=O)[C@H]1CC12CCN(CC1CC1)CC2)c1ncc(-c2cc3ccc(=O)n(C)c3cc2OC)o1 [Compound 199]
pIC50 (Recombinant human HDAC2): 8.89
EC50 (KARN cells (Jurkat 2C4); [1]): 62 nM
EC50 (KARN cells (Jurkat 2C4); [2]): 83 nM

CCN1CCC2(CC1)C[C@@H]2C(=O)N[C@@H](CCCCCC(=O)CC1CC1)c1ncc(-c2ccc(F)cc2)[nH]1 [Compound 201]
pIC50 (Recombinant human HDAC2): 7.49
EC50 (KARN cells (Jurkat 2C4); [1]): 359 nM
EC50 (KARN cells (Jurkat 2C4); [2]): 403 nM

CCC(=O)CCCCC[C@H](NC(=O)C1=NOC2(CCN(CC)CC2)C1)c1ncc(-c2cc3ccc(C)nc3cc2OC)o1 [Compound 204]
pIC50 (Recombinant human HDAC2): 8.41
EC50 (KARN cells (Jurkat 2C4); [1]): 165 nM
EC50 (KARN cells (Jurkat 2C4); [2]): 152 nM

CCC(=O)CCCCC[C@H](NC(=O)C1=NOC2(CCN(CC)CC2)C1)c1ncc(-c2cc3ccc(C)nc3cc2OC)[nH]1 [Compound 207]
pIC50 (Recombinant human HDAC2): 8.68
EC50 (KARN cells (Jurkat 2C4); [1]): 55 nM
EC50 (KARN cells (Jurkat 2C4); [2]): 58 nM

CCC(=O)CCCCC[C@H](N)c1ncc(-c2cc3ccc(C)nc3cc2OC)[nH]1 [Compound 209, (S)-9-amino-9-(5-(7-methoxy-2-methylquinolin-6-yl)-1H-imidazol-2-yl)nonan-3-one]
pIC50 (Recombinant human HDAC2): 6.82
EC50 (KARN cells (Jurkat 2C4); [1]): 1440 nM
EC50 (KARN cells (Jurkat 2C4); [2]): 4950 nM

CCC(=O)CCCCC[C@H](NC(=O)[C@H]1CC12CCN(CC)CC2)c1nc(-c2cc3ccc(C)nc3cc2OC)cn1COC(=O)C(C)(C)C [Compound 215, {2-[(1S)-1-({[(1S)-6-ethyl-6-azaspiro[2.5]oct-1-yl]carbonyl}amino)-7-oxononyl]-4-(7-methoxy-2-methylquinolin-6-yl)-1H-imidazol-1-yl}methyl 2,2-dimethylpropanoate]
pIC50 (Recombinant human HDAC2): 8.40
EC50 (KARN cells (Jurkat 2C4); [1]): 93 nM
EC50 (KARN cells (Jurkat 2C4); [2]): 93 nM

CCC(=O)CCCCC[C@H](NC(=O)C1=NOC2(CCN(C)CC2)C1)c1ncc(-c2cc3ccncc3nc2OC)o1 [Compound 216]
pIC50 (Recombinant human HDAC2): 7.46
EC50 (KARN cells (Jurkat 2C4); [1]): 194 nM
EC50 (KARN cells (Jurkat 2C4); [2]): 278 nM

CCC(=O)CCCCC[C@H](NCCN(C)C)c1ncc(-c2cc3ccc(C)nc3cc2OC)[nH]1 [Compound 217, (9S)-9-{[2-(dimethylamino)ethyl]amino}-9-[5-(7-methoxy-2-methylquinolin-6-yl)-1H-imidazol-2-yl]nonan-3-one]
pIC50 (Recombinant human HDAC2): 7.30
EC50 (KARN cells (Jurkat 2C4); [1]): 576 nM
EC50 (KARN cells (Jurkat 2C4); [2]): 518 nM

CCC(=O)CCCCC[C@H](NC(=O)C1=NOC2(CCN(CC3CC3)CC2)C1)c1ncc(-c2cc3ccc(C)nc3cc2OC)[nH]1 [Compound 219]
pIC50 (Recombinant human HDAC2): 8.74
EC50 (KARN cells (Jurkat 2C4); [1]): 78 nM
EC50 (KARN cells (Jurkat 2C4); [2]): 101 nM

CCC(=O)CCCCC[C@H](NC(=O)[C@H]1CC12CCN(C)CC2)c1ncc(-c2cc(OC)ncc2F)o1 [Compound 220]
pIC50 (Recombinant human HDAC2): 6.60
EC50 (KARN cells (Jurkat 2C4); [1]): 3810 nM
EC50 (KARN cells (Jurkat 2C4); [2]): 3930 nM

CCC(=O)CCCCC[C@H](NC(=O)C1=NOC2(CCN(C)CC2)C1)c1ncc(-c2cc3ccc(C)nc3cc2F)o1 [Compound 221]
pIC50 (Recombinant human HDAC2): 7.26
EC50 (KARN cells (Jurkat 2C4); [1]): 344 nM
EC50 (KARN cells (Jurkat 2C4); [2]): 581 nM
